In US8501166B2, “Pyrimidinyl indole compounds” (Hutchison Medipharma Limited, priority 2010, dated 2013):
Counter-ions that a name gives are not always drawn.

Key:
BxPC-3 cells = test: Cell viability test, combination study, BxPC-3; format: cell-based, human; conditions: for Ave. Inhibition rate: 72 h
Method: (§1) To evaluate biological activity of a compound in vitro, the cell viability test is applied, in which, IKKβ receptor plays an important role in cell survival and proliferation. Once the IKKβ pathway is blocked by inhibitors, a cell can go through apoptosis or death. The cell viability test provides information on cell survival after treatment with IKK inhibitors.
(§2) BxPC-3 cells (ATCC #CRL-1687; human pancreatic cancer cell line) are grown in Roswell Park Memorial Institute (RPMI) 1640 media (Gibco #A10491-01) supplemented with 10% fetal bovine serum (FBS) (Gibco #10099-141). Skov3-luc cells (ATCC, human ovarian carcinoma cell line) are grown in McCoy's 5a medium (Gibco#16600) supplemented with 10% FBS (Gibco#10099-141). For compound testing, BxPc-3 and Skov3-Luc cells are seeded at 2000 and 5000 cells/well respectively in 100 μL of corresponding media specified above for each cell line in 96-well plates 20 h prior to treatment. Cells are treated with a test compound at eight different concentrations in the presence of 0.5% DMSO for 72 h. Cell death in each well is determined by the addition of 20 μL of the One Solution Reagent (CELLTITER 96® AQueous One Solution Cell Proliferation Assay, Promega #G3580). After 2-4 h of incubation at 37° C., optical densities at 492 nm are measured with a microplate reader Inhibition of cell viability is determined by comparison to the control cells treated in the absence of a test compound.
(§3) For the combination study of the compound with other antitumor agents, BxPc-3 and Skov3-Luc cells are seeded at 2000 and 5000 cells/well respectively in 100 μL corresponding media specified above for each cell line in 96-well plates 20 h prior to the treatment. The cells are treated with the test compound at a number of concentrations for 30 minutes and then exposed to 5 ng/mL TNFα or 0.15-0.6 uM of VCR (vincristine sulfate) for an additional 72 hours. Cell death in each well is determined by the addition of 20 μL of the One Solution Reagent (CELLTITER 96® AQueous One Solution Cell Proliferation Assay, Promega #G3580). After 2-4 h of incubation at 37° C., optical densities at 492 nm are measured with a microplate reader Inhibition of cell viability is determined by comparison to the control cells treated in the absence of a test compound. For example, the results of the combination study with Example 1 are specially detailed in Table 2.

Skov3-luc cells = test: Cell viability test, combination study, Skov3-luc; format: cell-based; conditions: Homo sapiens, 72 h, Vincristine 0.25 μM alone, read-out: Ave. Inhibition rate
Method: as §1, §2
as §3, with “The cells are treated with the test compound at a number of concentrations for 30 minutes and then exposed to 5 ng/mL TNFα or 0.15-0.6 uM of VCR (vincristine sulfate) for an additional 72 hours.” left out, “For example, the results of the combination study with Example 1 are specially detailed in Table 2.” left out

[1] = tested on: SKOV-3x-FF-luci human ovarian cancer xenograft; test: Antitumor effect in SKOV-3x-FF-luci xenograft with vincristine (VCR); format: in vivo, Balb/c nu/nu mice; conditions: VCR alone at suboptimal dose, tail vein, once a week
Method: In order to expand the anti-tumor spectrum, more combination testing is explored. Based on in vitro synergistic effect of Example 1 and VCR, the compound is tested for its anti-tumor effects in SKOV-3x-FF-luci xenograft in the presence/absence of VCR. The SKOV-3x-FF-luci human ovarian cancer line (ATCC) is cultured in McCoy's 5a medium containing 10% FCS. Female Balb/c nu/nu mice (6-7 weeks old) are peritoneally injected with 0.2 mL of cell suspension containing 2×10^6 cells. Mice are divided into nine groups six days after cell implantation. The test compound is orally administered twice a day at 60 mg/kg for 20 consecutive days or at 90 mg/kg with a 2 days on and 5 days off dosing schedule. VCR at 1 or 0.3 mg/kg is administered via tail vein injection, once a week. In the combination group, VCR is given 1 h after the administration of the test compound. Mice from the control group are administered with the oral vehicle (10% Acacia at pH2.1) and intraperitoneally injected with saline. At the end of the treatment, all mice are euthanized with CO2 and tumors in the peritoneal cavity, diaphragmatic muscle, mesenterium, liver, spleen, and ovaries are harvested with surgery scissors and weighted. […] In the combination group, tumor growth is inhibited by 76% and 74%. Compared with monotherapy, statistical significance is found between combination and monotherapy.

[2] = tested on: OVA-induced airway inflammation; test: Ovalbumin (OVA)-induced pulmonary inflammation in mice; format: in vivo, Balb/c mice; conditions: dexamethasone 1 mg/kg (qd)
Method: A compound of the present invention is tested in an OVA-induced pulmonary inflammation model in mice essentially as described in a method reported in the literature (Muriel Pichavant, Sho Goya, Eckard Hamelmann, Erwin W. Gelfand, and Dale T. Umetsu. Animal Models of Airway Sensitization. Current Protocols in Immunology. (1999) 15.18.1-15.18.13). Briefly, female Balb/c mice weighing from 18 to 20 g are sensitized by introperitoneal injection of 100 μL of saline containing 20 μg of OVA and 2 mg of aluminum hydroxide on day 1 and 14. On days 28, 29 and 30, mice are challenged once each by aerosolizing 1% ovalbumin (OVA) in phosphate buffered saline (PBS) for 20 minutes with Buxco Mass Dosing System. […] On day 32, animals from each group are anesthetized with 1% of pentobarbital sodium. The thoracic and abdominal cavities are opened and plasma is collected from centrifuged specimens. The trachea is then dissected and transected. Through the insertion of an 18-gauge catheter into the trachea, the lungs are lavaged with a total of 1.5 mL of sterile PBS and then placed into a specimen container. Cell-free BAL supernatants are obtained by centrifugation of BAL fluids. All serum and BAL supernatants are stored at −80° C. until use. Differential cell counts are performed on cytospin preparations of BAL cells for cell counting and cytokine determination. After the collection of BAL supernatants, the lungs of recipient mice are removed en bloc and fixed by an intratracheal instillation of 10% buffered formalin (in PBS). Three to six paraffin sections are obtained from the perihilar regions of recipient lungs, stained with hematoxylin and eosin, and examined under light microscopy for pathological study.

CC[C@]1(O)C[C@H]2CN(CCc3c([nH]c4ccccc34)[C@@](C(=O)OC)(c3cc4c(cc3OC)N(C=O)[C@H]3[C@@](O)(C(=O)OC)[C@H](OC(C)=O)[C@]5(CC)C=CCN6CC[C@]43[C@@H]65)C2)C1 [Vincristine, vincristine sulfate, reference compound] was tested, and the inhibition at 0.15 µM (BxPC-3 cells; Homo sapiens, BXPC-3, 72 h, Vincristine 0.15 μM alone, read-out: Ave. Inhibition rate) was 5.73%, the “Ave. Inhibition rate” value (BxPC-3 cells; Vincristine 0.15 μM alone) was 9.48% and the inhibition at 0.25 µM (Skov3-luc cells) was 25%. For the same compound, the tumor growth inhibition [1] was 38%.
For TNFα, the “Ave. Inhibition rate” value (BxPC-3 cells; TNFα 5 ng/mL alone) was 5.73%.
For C[C@@H]1C[C@H]2[C@@H]3CCC4=CC(=O)C=C[C@]4(C)[C@@]3(F)[C@@H](O)C[C@]2(C)[C@@]1(O)C(=O)CO [Dexamethasone, reference compound], the “decrease of IL-13 in BALF” value [2] was 77%.
